Laboratory results from patent publication US20080107722A1, “Method For Loading Multiple Agents Into Delivery Vehicles” (priority 2004, published 2008).
One block for each compound: values may come before it.

Experiments:
[1] = passive then Na+/K+ gradient with valinomycin; cited from earlier work
[2] = Simultaneous loading of gemcitabine and doxorubicin into preformed liposomes; type: physicochemical; conditions: for loading and retention in liposomes: 60° C., DSPC/DSPG/Cholesterol 70:20:10, FIG. 4C; for simultaneous loading in high cholesterol-containing liposomes: DMPC/Cholesterol liposomes
Description: (§1) At various time points after initiation of drug loading, aliquots were removed and passed through a Sephadex® G-50 spin column to separate free from encapsulated drug. To a specified volume of eluant, Triton X-100 or N-ocyl beta-D-glucopyranoside (OGP) was added to solubilize the liposomes. Following addition of detergent, the mixture was heated to the cloud point of the detergent and allowed to cool to room temperature before measurement of the absorbance or fluorescence. Drug concentrations were calculated by comparison to a standard curve. Lipid levels were measured by liquid scintillation counting.
Gemcitabine and doxorubicin were loaded into DSPC/DSPG/Cholesterol liposomes at 37° C., 50° C. and 60° C. […] The lipid films were hydrated in 100 mM Cu(II)gluconate, adjusted to pH 7.4 with triethanolamine (TEA) and extruded at 70° C. The liposomes were buffer exchanged into HBS, pH 7.4 by crossflow dialysis. Prior to addition of drugs, the liposomes were preheated to the appropriate loading temperature for one minute. Gemcitabine (with tracer amounts of ^3H-gemcitabine) and doxorubicin were combined then added simultaneously to the pre-heated liposomes. Gemcitabine was added to a drug concentration of 30 μmol/mL and doxorubicin was added to a drug concentration of 33 μmol/mL. […] Aliquots were removed and analyzed for drug and lipid content at designated time intervals. The extent of doxorubicin loading was determined spectrophotometrically and gemcitabine and lipid levels were determined by liquid scintillation counting.

[3] = Simultaneous loading of cytarabine and daunorubicin into DSPC/DSPG/Cholesterol liposomes, effect of internal Cu(II)gluconate concentration; type: physicochemical; conditions: 50° C.; for daunorubicin loading (percent encapsulation): FIG. 2B
Description: (§2) Lipids were dissolved in chloroform:methanol:water (95:4:1 vol/vol/vol) and subsequently dried under a stream of nitrogen gas and placed in a vacuum pump to remove solvent. Unless otherwise specified, trace levels of radioactive lipid ^14C-DPPC was added to quantify lipid during the formulation process. The resulting lipid film was placed under high vacuum for a minimum of 2 hours. The lipid film was hydrated in the solution indicated to form multilamellar vesicles (MLVs). The resulting preparation was extruded 10 times through stacked polycarbonate filters with an extrusion apparatus (Lipex Biomembranes, Vancouver, BC) to achieve a mean liposome size between 80 and 150 nm. All constituent lipids of liposomes are reported in mole %.
as §1
Lipid films of DSPC/DSPG/Cholesterol at a mole ratio of 70:20:10 were prepared as described above in the method section. The lipid films were hydrated in the designated Cu(II)gluconate concentration and adjusted to pH 7.0 with triethanolamine (TEA). The liposomes were buffer exchanged into 300 mM sucrose, 20 mM sodium phosphate, pH 7.0 by crossflow dialysis to remove any copper(II)gluconate from the extraliposomal solution. Prior to addition of drugs, the liposomes were diluted in SPE and preheated at 50° C. for one minute. […] Aliquots were removed and analyzed for drug and lipid content at designated time intervals. The extent of daunorubicin loading was determined spectrophotometrically and cytarabine and lipid levels were determined by liquid scintillation counting.

[4] = Simultaneous loading of cytarabine and daunorubicin into preformed DSPC/DSPG/Cholesterol (70:20:10) liposomes, effect of temperature; type: physicochemical; conditions: for loading and retention in liposomes: 40° C., 100 mM Cu(II)gluconate pH 7.4 inside, FIG. 1A
Description: as §2, §1
Lipid films of DSPC/DSPG/Cholesterol at a mole ratio of 70:20:10 were prepared as described above in the method section. The lipid films were hydrated in 100 mM Cu(II)gluconate adjusted to pH 7.4 with triethanolamine (TEA) and extruded at 70° C. The liposomes were buffer exchanged into 300 mM sucrose, 20 mM phosphate, 1 mM EDTA (SPE), pH 7.4 by crossflow dialysis to remove any copper(II)gluconate from the extraliposomal solution. Prior to addition of drugs, the liposomes were preheated to the appropriate loading temperature for one minute. […] Aliquots were removed and analyzed for drug and lipid content at designated time intervals.

[5] = Simultaneous loading of FUDR and daunorubicin into preformed DSPC/DSPG/Cholesterol liposomes; type: physicochemical; conditions: 50° C.; for loading in liposomes: 100 mM Cu(II)gluconate pH 7.0, FIG. 3; for retention during the course of the experiment: FIG. 3
Description: as §1
FUDR and daunorubicin were loaded at 50° C. into pre-formed DSPC/DSPG/Cholesterol liposomes (70:20:10) containing 100 mM Cu(II)gluconate adjusted to pH 7.0 with triethanolamine (TEA). The liposomes were buffer exchanged into 300 mM sucrose, 40 mM phosphate, 1 mM EDTA, pH 7.0 by crossflow dialysis to remove any copper(II)gluconate from the extraliposomal solution. Prior to addition of drugs, the liposomes were diluted in SPE and preheated at 50° C. for one minute. FUDR (with trace amounts of ^3H-FUDR) and daunorubicin were combined then added simultaneously to the pre-heated liposomes. FUDR was added at a drug concentration of 60 μmol/mL and daunorubicin was added at a drug-to-lipid mole ratio of 0.1:1. […] Aliquots were removed and analyzed for drug and lipid content at designated time intervals. The extent of daunorubicin loading was determined spectrophotometrically and FUDR and lipid levels were determined by liquid scintillation counting.

[6] = Simultaneous loading of daunorubicin and cytarabine into DMPC/Cholesterol liposomes by citrate pH-gradient; type: physicochemical; conditions: 45° C. versus room temperature or 40° C., 300 mM citrate pH 4 inside, FIG. 5
Description: as §1
Aliquots were removed and analyzed for drug and lipid content at designated time intervals.

[7] = Simultaneous loading of irinotecan and floxuridine into low cholesterol DSPC/DSPG/Cholesterol liposomes (data not shown); type: physicochemical; conditions: low cholesterol-containing DSPC/DSPG/Cholesterol liposomes
[8] = Simultaneous loading of FUDR and cpt-11 into DSPC/Cholesterol (high-cholesterol) liposomes; type: physicochemical; conditions: 50° C.; for loading in liposomes: DSPC/Cholesterol, 100 mM Cu(II)gluconate pH 7.0; for drug ratio of FUDR-to-cpt-11 during the course of the experiment: FIG. 6
Description: as §1
Lipid films of DSPC/Cholesterol at a mole ratio of 55:45 were prepared as previously described and then hydrated in 100 mM Cu(II)gluconate, adjusted to pH 7.0 with triethanolamine (TEA). The liposomes were buffer exchanged into SPE, pH 7.0. Prior to addition of drugs, the liposomes were preheated to 50° C. for one minute. FUDR (with tracer amounts of ^3H-FUDR) and cpt-11 were combined then added simultaneously to the pre-heated liposomes. FUDR was added to a final drug concentration of 110 μmol/mL and cpt-11 was added to a final drug concentration of 7.5 μmol/mL. The liposomes and drugs were incubated for one hour to allow for the passive uptake of FUDR concurrent with the active uptake of Irinotecan. Aliquots were removed and analyzed for drug and lipid content at designated time intervals. The extent of cpt-11 loading was determined spectrophotometrically and FUDR and lipid levels were determined by liquid scintillation counting.

[9] = co-loaded with mitoxantrone in a single liposome; cited from earlier work
[10] = 37° C., DSPC/DSPG/Cholesterol 70:20:10, FIG. 4A
[11] = 50° C., DSPC/DSPG/Cholesterol 70:20:10, FIG. 4B

SMILES: CN(Cc1cnc2nc(N)nc(N)c2n1)c1ccc(C(=O)N[C@@H](CCC(=O)O)C(=O)O)cc1 [methotrexate]
available drug encapsulated [1]: 33%

SMILES: COc1cccc2c1C(=O)c1c(O)c3c(c(O)c1C2=O)C[C@@](O)(C(C)=O)C[C@@H]3O[C@H]1C[C@H](N)[C@H](O)[C@H](C)O1 [daunorubicin]
daunorubicin loading (percent encapsulation) ([3]; 25 mM copper gluconate): compromised
daunorubicin loading (percent encapsulation) ([3]; 100 mM, 75 mM and 50 mM copper gluconate): sufficient
loading and retention in liposomes [4]: efficiently loaded and retained
loading in liposomes ([4]; 50° C., FIG. 1B): load to adequate levels
retention in liposomes during the experiment ([4]; 50° C., FIG. 1B): effectively retained
loading in liposomes ([4]; 60° C., FIG. 1C): loads at this temperature
retention in liposomes ([4]; 60° C., FIG. 1C): not well-retained
loading in liposomes [5]: loaded to sufficient levels
retention during the course of the experiment [5]: well maintained
simultaneous loading efficiency [6]: more efficient

SMILES: CCc1c2c(nc3ccc(OC(=O)N4CCC(N5CCCCC5)CC4)cc13)-c1cc3c(c(=O)n1C2)COC(=O)[C@]3(O)CC [cpt-11, irinotecan]
loading in liposomes [7]: sufficient
loading in liposomes [8]: effectively loaded
drug ratio of FUDR-to-cpt-11 during the course of the experiment [8]: maintained at a sufficient level

SMILES: O=c1[nH]c(=O)n([C@H]2C[C@H](O)[C@@H](CO)O2)cc1F [FUDR, Floxuridine]
loading in liposomes [7]: sufficient
loading in liposomes [8]: effectively loaded
drug ratio of FUDR-to-cpt-11 during the course of the experiment [8]: maintained at a sufficient level
loading in liposomes [5]: loaded to sufficient levels
retention during the course of the experiment [5]: well maintained

SMILES: CC[C@]1(O)C[C@H]2CN(CCc3c([nH]c4ccccc34)[C@@](C(=O)OC)(c3cc4c(cc3OC)N(C=O)[C@H]3[C@@](O)(C(=O)OC)[C@H](OC(C)=O)[C@]5(CC)C=CCN6CC[C@]43[C@@H]65)C2)C1 [vincristine]
release of entrapped drug in vivo [9]: rapid release

Now from value to compound, other results behind:

loading in liposomes [2, 10]: could load effectively
loading and retention in liposomes [2]: Optimal loading and retention
simultaneous loading in high cholesterol-containing liposomes [2]: hindered by aggregation
SMILES: Nc1ccn([C@@H]2O[C@H](CO)[C@@H](O)C2(F)F)c(=O)n1 [gemcitabine, Gemcitabine]
loading in liposomes [2, 11]: load to minimal levels and then quickly leaks

loading in liposomes [2, 10]: did not load to sufficient levels
loading in liposomes [2, 11]: superior to the gemcitabine loading
loading and retention in liposomes [2]: Optimal loading and retention
simultaneous loading in high cholesterol-containing liposomes [2]: hindered by aggregation
SMILES: COc1cccc2c1C(=O)c1c(O)c3c(c(O)c1C2=O)C[C@@](O)(C(=O)CO)C[C@@H]3O[C@H]1C[C@H](N)[C@H](O)[C@H](C)O1 [doxorubicin]

cytarabine loading during simultaneous uptake of daunorubicin ([3]; 25, 50, 75 and 100 mM Cu(II)gluconate, FIG. 2A): sufficient
extent of cytarabine loading ([3]; 25 and 50 mM versus 75 mM and 100 mM Cu(II)gluconate, FIG. 2A): improved
loading and retention in liposomes [4]: less than desirable
loading in liposomes ([4]; 50° C., FIG. 1B): load to adequate levels
retention in liposomes during the experiment ([4]; 50° C., FIG. 1B): effectively retained
loading in liposomes ([4]; 60° C., FIG. 1C): compromised compared to loading at 50 °C
SMILES: Nc1ccn([C@@H]2O[C@H](CO)[C@@H](O)[C@@H]2O)c(=O)n1 [cytarabine]
